According to patent US5288720A, “Angiotensin II receptor blocking 2,3,6 substituted quinazolinones” (American Cyanamid Company, priority 1993, dated 1994):
pIC50: −log10 of the molar value.

Biological target: T1, Angiotensin II Receptor (Bos taurus, UniProt P25104)
T1 construct: The brownish tissue forming the adrenal cortex is scraped off and finely minced with scissors before homogenization; from tissue; host or cells: beef adrenal cortex, microsomal membranes (100,000×g pellet); fresh glands from a local slaughter house (Maxwell-Cohen)
T1 sequence (P25104 1-359): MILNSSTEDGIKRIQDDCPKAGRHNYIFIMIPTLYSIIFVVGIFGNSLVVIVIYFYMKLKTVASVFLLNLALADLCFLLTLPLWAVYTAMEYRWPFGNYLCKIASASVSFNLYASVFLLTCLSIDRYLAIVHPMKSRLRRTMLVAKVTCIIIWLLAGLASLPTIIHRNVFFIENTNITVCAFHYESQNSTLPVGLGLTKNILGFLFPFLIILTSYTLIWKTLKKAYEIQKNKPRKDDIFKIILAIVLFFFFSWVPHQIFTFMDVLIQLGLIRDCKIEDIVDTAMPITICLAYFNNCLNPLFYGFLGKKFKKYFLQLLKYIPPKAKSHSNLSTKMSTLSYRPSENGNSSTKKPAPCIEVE
Experiment: Receptor Binding Assay: Binding of [^125 I](Sar^1,Ile^8)AngII to beef adrenal cortex membranes
Conditions: 60 min, room temperature
Summary of the method: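 Competition binding of [125I](Sar1,Ile8)AngII (2200 Ci/mmole) to bovine adrenal cortex membranes (100,000×g pellet) in 50.0 mM Tris.HCl, pH 7.2, 0.1 mM PMSF. Compounds were added in DMSO and incubated 60 min at room temperature, in triplicate. Bound ligand was filtered onto PEI-presoaked filters and gamma-counted, with nonlinear analysis.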

Compound	pIC50
CCCCc1nc2ccc(C(OC)C3CCCO3)cc2c(=O)n1Cc1ccc(-c2ccccc2-c2nn[nH]n2)cc1 (single isomer, unassigned) [Example 24]	7.42
CCCCc1nc2ccc(C(OC)C3CCCO3)cc2c(=O)n1Cc1ccc(-c2ccccc2-c2nn[nH]n2)cc1 (single isomer, unassigned; isomer 1) [Example 23, 2-Butyl-6-[methoxy(tetrahydro-2-furanyl)methyl-3-[[2'-(1H-tetrazol-5-yl)[1,1'-biphenyl]-4-yl]-methyl]-4(3e,uns/H/ )-quinazolinone isomer 1]	7.17
CCCCc1nc2ccc(C(O)C3CCN(C)C3=O)cc2c(=O)n1Cc1ccc(-c2ccccc2-c2nn[nH]n2)cc1 (single isomer, unassigned; isomer 1) [Example 32, 2-Butyl-6-[hydroxy(1-methyl-2-oxo-3-pyrrolidinyl)methyl]-3-[[2'-(1e,uns/H/ -tetrazol-5-yl)[1,1'-biphenyl]-4-yl]methyl]-4(3H)-quinazolinone isomer 1]	7.39
CCCCc1nc2ccc(C(O)C3CCN(C)C3=O)cc2c(=O)n1Cc1ccc(-c2ccccc2-c2nn[nH]n2)cc1 (single isomer, unassigned; isomer 2) [Example 33, 2-Butyl-6-[hydroxy(1-methyl-2-oxo-3-pyrrolidinyl)methyl-3-[[2'-(1H-tetrazol-5-yl)[1,1'-biphenyl]-4-yl]methyl]-4(3H)-quinazolinone isomer 2]	7.54

Further lines, results first:

pIC50	Compound
7.39	CCCCc1nc2ccc(C(O)C3CCCN(C)C3=O)cc2c(=O)n1Cc1ccc(-c2ccccc2-c2nn[nH]n2)cc1 (single isomer, unassigned; isomer 1) [Example 37, 2-Butyl-6-hydroxy(1-methyl-2-oxo-3-piperidinyl)methyl]-3-[[2'-(1H-tetrazol-5-yl)[1,1'-biphenyl]-4-yl]methyl]-4(3H)-quinazolinone isomer 1]
7.04	CCCCc1nc2ccc(C(OC)C3CCCN(C)C3=O)cc2c(=O)n1Cc1ccc(-c2ccccc2-c2nn[nH]n2)cc1 (single isomer, unassigned; isomer 1) [Example 42, 2-Butyl-6-methoxy(1-methyl-2-oxo-3-piperidinyl)methyl]-3-[[2' -1H-tetrazol-5-yl)[1,1'-biphenyl]-4-yl]methyl-4(3H)-quinazolinone isomer 1]
7.17	CCCCc1nc2ccc(C(O)C3CCCN(C)C3=O)cc2c(=O)n1Cc1ccc(-c2ccccc2-c2nn[nH]n2)cc1 (single isomer, unassigned; isomer 2) [Example 38, 2-Butyl-6-hydroxy(1-methyl-2-oxo-3-piperidinyl)methyl-3-[[2'-(1H-tetrazol-5-yl)[1,1'-biphenyl]-4-yl]methyl-4(3H)-quinazolinone isomer 2]
7.15	CCCCc1nc2ccc(C(OC)C3CCCN(C)C3=O)cc2c(=O)n1Cc1ccc(-c2ccccc2-c2nn[nH]n2)cc1 (single isomer, unassigned; isomer 2) [Example 43, 2-Butyl-6-[methoxy(1-methyl-2-oxo-3-piperidinyl)methyl]-3-[[2'-(1H-tetrazol-5-yl)[1,1'-biphenyl]-4-yl]methyl]-4(3H)-quinazoline isomer 2]
